Patent publication US8278300B2, “Use for PDE5 inhibitors” (Nycomed GmbH, priority 2004, dated 2012)

Columns and labels:
[1] = system: cerebral blood flow within the posterior cerebral artery; experiment: Transcranial Doppler of visually stimulated cerebral blood flow in pulmonary hypertension patients; assay type: in vivo, human; conditions: for cerebral microvascular reactivity: patients with chronic pulmonary hypertension
From the text: It has been shown—contrary to the skilled person's expectation, that the vasodilating effect achieved with a PDE5 inhibitor extends to the improvement of the kinetics in blood flow changes upon stimulation of the cortex by utilizing a visual stimulation paradigm. This could be shown by using the doppler-ultrasound technology which can measure the heart-beat dependent pulsatile blood flow within the basale cerebral vasculature with very high resolution. With a standard visual stimulation the Doppler is able by insonate the posterior cerebral artery to measure the activity-dependent blood-flow-regulation. [Rosengarten et al. (2001) Neurovascular coupling in terms of a control system: validation of a second-order linear system model. Ultrasound Med. Biol. 27: 631-5; Babikian et al. (2000) Transcranial Doppler ultrasonography: year 2000 update. J Neuroimaging 10: 101-115]
A pharmaceutical preparation comprising a PDE5 inhibitor can be used to treat patients with primary and secondary pulmonary hypertension. […] The hemodynamics aspects of the cerebral blood flow modulation can be described by a mathematical model (see Rosengarten et al., Headache 2003; 43: 458-463). This cited model contains a parameter T which defines the initial fast responding properties of the blood flow upon visual stimulation and three parameters (K, ζ and ω) which define the delayed adjustment of the […] blood flow. T is called the hold-back-time or rate time, K is the gain (which means change in blood flow velocity upon visual stimulation),ζ the attenuation (which represents the dampening due to vessel wall attenuation) and ω the natural frequency (represents the oscillating properties in dynamic neurovascular coupling). Patients with primary and secondary pulmonary hypertension display a pulmonary disturbance between ventilation of the alveoli and their perfusion. Such a demand-dependent inadequate perfusion has also been shown for the vasculature near the muscles. In this invention it is shown that patients with pulmonary hypertension display an increase in the rate time (meaning T is larger) and an enhanced attenuation ζ of the cerebral blood flow within the posterior cerebral artery upon visual stimulation. Thus it is shown that the mentioned disturbed micro-perfusion observed in patients with pulmonary hypertension extents to that of the brain. […] In addition the pro-longed hold-back time (rate time) in the patients is shortened by treatment with the PDE5-inhibitor sildenafil. This measurements have been performed 1 h after sildenafil intake but all responses to oral sildenafil outlasted 120-150 min.
In contrast to sildenafil iloprost treatment (2,8 μg inhaled in 4 min) worsens the impaired rate time and attenuation in patients with pulmonary hypertension (FIG. 1).
FIG. 1. Assessment of cerebral flow characteristics. Values for rate time and attenuation are presented in this graph. Medians (filled circles) and 95% confidence intervals (bars) are given for healthy controls, and patients at baseline (untreated), after iloprost inhalation, and subsequent to oral sildenafil intake. Statistical differences were assessed by ANOVA (p-values indicate significant differences between groups). Fisher's post hoc test was calculated at a significance level of p<0.05;

[2] = system: rats with LPS-induced sepsis; experiment: LPS-induced sepsis in anaesthetized rats: sensoric evoked potentials and evoked cerebral blood flow; assay type: in vivo, rat; conditions: 4½ h after inducing sepsis with LPS
Procedure: Modulation of the cerebral blood flow evoked by repetitive electrical stimulation of the sole of one foot of the rats is measured by Doppler ultrasound technology as well as the sensoric evoked neuronal potentials (SEPs) by EEG. Baseline measurements are performed before application of LPS to the rats to induce sepsis.

pulmonary circulation = experiment: Pulmonary haemodynamics in patients with chronic pulmonary hypertension; assay type: in vivo, human; conditions: inhaled iloprost, oral sildenafil
stroke in rats = conditions: cited from earlier work
[3] = system: epicardial coronary arteries; conditions: patients with coronary artery disease; cited from earlier work
[4] = patients with pulmonary hypertension, iloprost 2,8 μg inhaled in 4 min

Row | Structure (SMILES) | cerebral microvascular reactivity [1] | duration of responses to oral sildenafil ([1]; patients with pulmonary hypertension, 50 mg oral) [min] | hold-back time (rate time) T of cerebral blood flow upon visual stimulation ([1]; patients with pulmonary hypertension, sildenafil 50 mg, oral, 1 h after intake) | attenuation parameter ζ of cerebral blood flow upon visual stimulation ([1]; patients with pulmonary hypertension, sildenafil 50 mg, oral, one hour before measurement) | stimulus induced cerebral blood flow ([2]; Doppler ultrasound) | amplitude of the SEP (sensoric evoked neuronal potentials) ([2]; electrical stimulation of one foot) | pulmonary arterial pressure (pulmonary circulation) | pulmonary vascular resistance (pulmonary circulation) | functional recovery after stroke (stroke in rats) | neurogenesis after stroke (stroke in rats) | relaxation of epicardial coronary arteries [3] | attenuation of cerebral blood flow upon visual stimulation [1, 4] | rate time of cerebral blood flow upon visual stimulation [1, 4]
1 | CCCc1nn(C)c2c(=O)[nH]c(-c3cc(S(=O)(=O)N4CCN(C)CC4)ccc3OCC)nc12 [sildenafil, 5-[2-ethoxy-5-(4-methylpiperazin-1-ylsulfonyl)phenyl]-1,6-dihydro-1-methyl-3-propylpyrazolo[4,3-d]pyrimidin-7-one] | significantly improved | 120 to 150 | shortened | significantly reduced | greatly restores | greatly restores | significant reduction | significant reduction | promotes functional recovery | induces neurogenesis | relax epicardial coronary arteries |  | 
2 | CC#CCC(C)[C@H](O)/C=C/[C@@H]1[C@H]2C/C(=C/CCCC(=O)O)C[C@H]2C[C@H]1O (stereo partly shown) [iloprost] | gradually worsened |  |  |  |  |  | significant reduction | significant reduction |  |  |  | worsens | worsens
